According to patent US12465605B2, “Methods and materials for gender-dependent treatment of cardiovascular dysfunction” (Mayo Foundation for Medical Education and Research, priority 2019, dated 2025):

What was measured:
[1] = tested on: patients with mild-to-moderate calcific aortic valve stenosis; experiment: Phase II clinical trial, six months, progression of valve disease; assay type: in vivo, human
From the text: Phase II clinical trial design: Patients with mild-to-moderate calcific aortic valve stenosis (valve area between 1.0 cm^2 and 2.0 cm^2) with well-preserved left ventricular function (ejection fraction>50%) and significant valve calcification (calcium levels>300 units by computed tomography scanning) were recruited for participation in a randomized, double-blind, placebo-controlled trial. After screening, patients were randomized into two groups: • (1) placebo treatment for a minimum of 6 months, or • (2) ataciguat treatment for a minimum of 6 months Patients underwent computed tomography measurements of aortic valve calcification, echocardiographic assessments of ventricular and aortic valve function, and DEXA scanning for assessment of systemic bone mineral density at baseline and at six month intervals after initiation of treatment.
LPA studies in humans with aortic valve calcification: Human plasma LPA levels were measured using a colorimetric, sandwich/quantitative ELISA assay (AB212165) after samples were diluted in diluent buffer. Computed tomography scanning was performed using clinical grade, high-resolution scanning methods that are well-established for assessment of aortic valve calcification. The calcium burden was measured from 3-dimensional, multi-slice images and expressed as arbitrary units (AU).
To determine whether ataciguat could slow progression of FCAVS, a randomized, double-blind, placebo-controlled study was conducted in patients with mild/moderate valvular disease. Key eligibility criteria for the study included valvular calcium levels above 300 AU, a valve area between 1.0 and 2.0 cm^2, an ejection fraction greater than 50%, and absence of congenital heart valve disease (full inclusion/exclusion criteria is shown in TABLE 1). Patients were randomized to placebo or ataciguat treatment for six months, and a subset of patients received treatment for 12 months. Importantly, there was no difference in measured hemodynamic, blood biochemistry, drug treatment, or comorbidity indices between treatment groups at baseline. Given the relatively short duration of follow-up, the primary outcome variable was the change in valvular calcium over time. Secondary and tertiary outcomes were aortic valve and left ventricular function, respectively.

[2] = tested on: LPA-induced BMP signaling; experiment: LPA-induced BMP signaling (Osterix mRNA) in aortic valve interstitial cells; assay type: cell-based; conditions: 18:0 lyso-PA with ataciguat
Experimental: In vitro cell culture studies: Aortic valve interstitial cells were isolated using an outgrowth method, and were expanded in DMEM/F-10 medium with 10% FBS and studied in passages 2-10. Cells were treated for 24 hours under each experimental condition, at which point mRNA was harvested using lysis buffer. After mRNA isolation and reverse transcription, gene expression was measured using quantitative real-time RT-PCR and Taqman primers. Changes in gene expression were assessed by the ddCt method and expressed as fold-change normalized to control conditions.
Additional studies were conducted in aortic valve interstitial cells to examine the effects of ataciguat on LPA-induced BMP signaling and BMP target gene expression. Cells were treated with 18:0 lyso-PA, with or without ataciguat, and Osterix mRNA levels were determined.

sGC = biological target: T1, sGC (Mus musculus, UniProt O54865); experiment: sGC signaling (phospho-VASP239) in mouse aortic valve interstitial cells; assay type: cell-based; conditions: otherwise naïve mVICs, vs vehicle-treated cells
T1 construct: endogenous in cells; host or cells: primary mouse aortic valve interstitial cells (mVICs) from C57BL6/J mice
T1 sequence (O54865 1-620): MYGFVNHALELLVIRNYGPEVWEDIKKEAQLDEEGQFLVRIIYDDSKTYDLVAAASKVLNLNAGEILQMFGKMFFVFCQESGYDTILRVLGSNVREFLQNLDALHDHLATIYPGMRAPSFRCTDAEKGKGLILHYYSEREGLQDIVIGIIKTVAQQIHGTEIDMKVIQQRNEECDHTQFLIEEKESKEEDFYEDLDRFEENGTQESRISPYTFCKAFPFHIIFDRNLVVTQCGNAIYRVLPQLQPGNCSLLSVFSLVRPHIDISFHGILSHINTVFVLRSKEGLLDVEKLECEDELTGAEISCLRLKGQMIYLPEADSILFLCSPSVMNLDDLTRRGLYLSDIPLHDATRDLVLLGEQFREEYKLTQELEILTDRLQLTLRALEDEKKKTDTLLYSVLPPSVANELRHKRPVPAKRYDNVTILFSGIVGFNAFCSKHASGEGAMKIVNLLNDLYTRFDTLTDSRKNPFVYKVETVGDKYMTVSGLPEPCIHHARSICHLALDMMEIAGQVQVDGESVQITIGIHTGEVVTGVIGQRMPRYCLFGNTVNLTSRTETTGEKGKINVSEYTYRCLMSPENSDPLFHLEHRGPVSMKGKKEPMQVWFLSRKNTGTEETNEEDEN
T1 sequence (Q9ERL9 1-691 partner): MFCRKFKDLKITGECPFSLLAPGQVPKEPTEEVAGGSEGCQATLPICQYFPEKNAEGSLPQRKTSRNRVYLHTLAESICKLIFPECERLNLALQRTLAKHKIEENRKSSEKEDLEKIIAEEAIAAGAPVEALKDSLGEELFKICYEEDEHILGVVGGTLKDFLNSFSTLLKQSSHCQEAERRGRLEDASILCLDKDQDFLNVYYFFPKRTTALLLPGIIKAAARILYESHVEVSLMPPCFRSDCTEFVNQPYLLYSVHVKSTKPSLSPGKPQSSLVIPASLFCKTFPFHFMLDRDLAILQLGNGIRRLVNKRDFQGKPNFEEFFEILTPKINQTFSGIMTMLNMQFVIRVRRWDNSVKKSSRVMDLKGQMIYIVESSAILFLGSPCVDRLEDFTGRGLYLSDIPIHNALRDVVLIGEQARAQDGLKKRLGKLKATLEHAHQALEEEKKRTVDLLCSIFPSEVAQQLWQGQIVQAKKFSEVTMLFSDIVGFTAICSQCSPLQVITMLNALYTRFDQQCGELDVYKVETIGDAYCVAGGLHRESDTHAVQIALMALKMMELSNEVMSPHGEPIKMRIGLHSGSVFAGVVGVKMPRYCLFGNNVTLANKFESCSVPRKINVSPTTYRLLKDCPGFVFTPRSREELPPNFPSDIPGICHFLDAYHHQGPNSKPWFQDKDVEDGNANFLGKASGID
Experimental: (§1) To confirm that ataciguat effectively activated sGC in cells, mouse aortic valve interstitial cells (mVICs) were isolated from C57BL6/J mice treated with ataciguat or other sGC agonists as internal controls. […] To determine whether ataciguat could attenuate signaling cascades central to the initiation and progression of valve calcification in vitro, cells were treated with BMP2 with or without ataciguat. In these studies, ataciguat reduced phospho-SMAD1/5/8 signaling (e.g., canonical BMP signaling) as well as expression of osteogenic genes induced by BMP2 (e.g., osterix).

canonical BMP signaling = experiment: BMP2-induced signaling in aortic valve interstitial cells; assay type: cell-based, mouse; conditions: cells treated with BMP2 with or without ataciguat
Experimental: as §1

[3] = 200 mg/day, all subjects combined
[4] = 200 mg/day, both sexes combined

Question: What does the source list for O=C(Nc1ccc(S(=O)(=O)N2CCOCC2)cc1)c1cc(Cl)ccc1NS(=O)(=O)c1ccc(Cl)s1 [ataciguat, 5-chloro-2-[[(5-chloro-2-thienyl)sulfonyl]amino]-N-[4-(4-morpholinylsulfonyl)phenyl]-benzamide]?
Answer: changes in aortic valve area, male versus female patients ([1]; 200 mg/day): therapeutic benefit was predominantly conferred to male patients; changes in peak transvalvular velocity ([1]; 200 mg/day): negligible impact; aortic pulse pressure (index of arterial stiffness), seated [1, 3]: attenuated; left ventricular diastolic function (E/e′ or E/A ratio) [1, 3]: attenuate further progression of diastolic dysfunction; left ventricular systolic function (ejection fraction or stroke volume) [1, 3]: prevent the decline in left ventricular function; changes in aortic valve area [1, 4]: can attenuate progression of aortic valve dysfunction; progression of valve calcification [1, 4]: significantly attenuated; left ventricular stroke volume ([1]; 200 mg/day, female subjects): potential worsening; left ventricular systolic function ([1]; 200 mg/day, female subjects): no consistent benefit; left ventricular diastolic function (E/e′ or E/A ratio) ([1]; 200 mg/day, females): negligible therapeutic benefit; pulse pressure ([1]; 200 mg/day, females): no apparent therapeutic benefit; progression of valve calcification, male versus female patients ([1]; 200 mg/day, male patients compared to females): much greater therapeutic benefit; left ventricular diastolic function (E/e′ or E/A ratio) ([1]; 200 mg/day, male subjects): predominant recipients of any therapeutic benefit; left ventricular systolic function (ejection fraction or stroke volume) ([1]; 200 mg/day, male subjects): improved left ventricular systolic function; pulse pressure ([1]; males, compared to placebo): reduction in pulse pressure; aortic valve function vs baseline ([1]; p=0.24 vs baseline): did not worsen significantly; changes in valvular calcium in relation to baseline plasma LPA ([1]; patients with higher vs lower baseline plasma LPA): tended to receive greater therapeutic benefit; LPA effect on expression of Osterix [2]: dramatically suppressed; sGC-dependent signaling (phospho-VASP^239 levels) (sGC): significantly increased; expression of osteogenic genes induced by BMP2 (e.g., osterix) (canonical BMP signaling): reduced; phospho-SMAD1/5/8 signaling (canonical BMP signaling) (canonical BMP signaling): reduced
